Test results published in the supplement of paper PMC10307832.

How the values were obtained:
Assay in all cases: relative viability (nuclei count vs DMSO), 5 days (fraction); higher = more cells survive
[1] = compound: Cc1ccc(NC(=O)c2ccc(CN3CCN(C)CC3)cc2)cc1Nc1nccc(-c2cccnc2)n1 [Imatinib] + C[C@]1(O)C[C@@H](c2nc(-c3ccc4ccc(-c5ccccc5)nc4c3)c3c(N)nccn32)C1 [Linsitinib] (partner 1 µM)
Summary of the method: (§1)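 Relative viability equals treated-well nuclei counts divided by vehicle-well nuclei counts. Counts came from 4× images of lung cancer cell lines grown in 1536-well plates for 5 days after pin-tool dosing on the day after seeding. Dosing used one drug alone or a fixed anchor-drug dose plus five library-drug doses (not always all listed) in √10 steps, and values are medians of duplicate plates.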

[2] = compound: Cc1ccc(NC(=O)c2ccc(CN3CCN(C)CC3)cc2)cc1Nc1nccc(-c2cccnc2)n1 [Imatinib] + Cc1cc(Nc2cc(N3CCN(C)CC3)nc(Sc3ccc(NC(=O)C4CC4)cc3)n2)n[nH]1 [Tozasertib] (partner 0.1 µM)
Summary of the method: as §1

[3] = compound: Cc1ccc(NC(=O)c2ccc(CN3CCN(C)CC3)cc2)cc1Nc1nccc(-c2cccnc2)n1 [Imatinib] + Cc1nc(NC(=O)N2CCC[C@H]2C(N)=O)sc1-c1ccnc(C(C)(C)C(F)(F)F)c1 [Alpelisib] (partner 2 µM)
Summary of the method: as §1

[4] = compound: Cc1ccc(NC(=O)c2ccc(CN3CCN(C)CC3)cc2)cc1Nc1nccc(-c2cccnc2)n1 [Imatinib] + Cc1nc(Nc2ncc(C(=O)Nc3c(C)cccc3Cl)s2)cc(N2CCN(CCO)CC2)n1 [Dasatinib] (partner 0.075 µM)
Summary of the method: as §1

Cell Line	relative viability ([1]; first compound 0.02 µM)	relative viability ([1]; first compound 0.2 µM)	relative viability ([1]; first compound 0.6325 µM)	relative viability ([1]; first compound 2 µM)	relative viability ([2]; first compound 0.02 µM)	relative viability ([2]; first compound 0.2 µM)	relative viability ([2]; first compound 2 µM)	relative viability ([3]; first compound 0.02 µM)	relative viability ([3]; first compound 0.2 µM)	relative viability ([3]; first compound 0.6325 µM)	relative viability ([3]; first compound 2 µM)	relative viability ([4]; first compound 0.02 µM)	relative viability ([4]; first compound 0.2 µM)	relative viability ([4]; first compound 0.6325 µM)	relative viability ([4]; first compound 2 µM)	relative viability ([2]; first compound 0.6325 µM)	relative viability ([1]; first compound 0.06325 µM)	relative viability ([2]; first compound 0.06325 µM)	relative viability ([3]; first compound 0.06325 µM)	relative viability ([4]; first compound 0.06325 µM)
201T	1.03	1.03	1.03	0.957	0.98	1.06	0.859	1.03	1.07	1.02	0.993	0.594	0.625	0.61	0.496	–	–	–	–	–
A-427	1.11	1.11	1.17	1.08	0.192	0.176	0.197	1.11	–	1.1	1.06	–	0.798	0.805	0.714	0.195	–	–	–	–
ABC-1	0.727	0.778	0.849	0.779	0.211	0.221	0.141	1.1	1.35	1.13	0.888	0.624	0.689	0.522	0.523	0.185	–	–	–	–
BEN	0.908	0.921	0.837	0.969	0.523	0.489	0.51	1.1	0.93	1.05	1.03	0.312	0.307	0.339	0.296	0.492	0.785	0.546	0.785	–
CAL-12T	0.908	0.996	0.982	0.788	0.369	0.311	0.225	1.47	1.42	1.17	1.14	0.625	0.612	0.503	0.51	0.293	0.877	–	1.62	–
COR-L23	1.14	1.18	0.895	1.04	0.226	0.165	0.154	0.794	0.969	0.806	0.902	0.555	0.43	0.591	0.539	0.161	1.01	0.174	1.02	0.451
COR-L 105	1.08	1	1.02	0.978	0.365	0.359	0.311	1.29	1.18	0.882	1.01	0.324	0.277	0.308	0.287	0.317	1.14	0.364	1.35	0.335
ChaGo-K-1	–	–	–	–	0.223	0.208	0.21	–	–	–	–	0.58	0.522	0.515	0.579	0.185	–	0.189	–	0.51
EBC-1	1.18	1.07	1.04	0.818	–	–	–	0.763	0.893	0.823	0.634	–	–	–	–	–	0.974	–	–	–
EKVX	1.09	0.968	1.02	1.12	–	0.348	0.354	0.967	0.89	0.835	1.01	0.58	0.549	0.502	0.505	0.287	–	0.389	0.883	–
EMC-BAC-2	0.845	0.889	0.767	0.868	0.297	0.33	0.277	0.823	0.877	0.788	0.844	0.337	0.322	0.327	0.308	0.283	0.961	0.296	0.81	0.349
EPLC-272H	1.28	1.24	1.23	1.02	0.366	0.256	0.207	1.04	0.987	1.03	0.843	0.393	0.367	0.311	0.289	0.258	–	–	–	–
H3255	1.06	0.877	0.965	0.998	0.604	0.638	0.614	0.815	0.747	0.645	0.618	0.443	0.351	0.361	0.258	0.575	0.921	0.608	–	0.346
HARA	1.16	1.05	0.994	0.969	0.083	0.107	0.101	1	0.822	0.697	0.804	0.309	0.279	0.217	0.27	0.0993	0.906	–	0.501	–
HCC-15	0.82	0.926	–	0.867	0.472	0.389	0.284	–	0.883	0.814	0.885	0.722	0.668	0.594	0.598	0.402	0.917	–	0.853	–
HCC-44	0.801	0.664	0.549	0.646	1.03	1.01	0.735	0.895	0.941	0.71	0.791	–	–	–	–	0.109	–	0.558	0.819	–
HCC-78	0.444	0.563	0.524	0.576	0.393	0.427	0.427	0.319	0.367	0.347	0.348	0.343	0.403	0.35	0.343	0.409	0.528	0.455	0.381	0.355
HCC-366	0.685	1.02	0.692	0.844	0.193	0.109	0.0718	0.543	0.431	0.362	0.35	0.805	0.822	0.648	0.584	0.0574	–	–	–	–
HCC-827	1.02	–	0.98	0.897	0.404	0.407	0.421	0.987	1.05	–	1.01	0.287	0.239	0.151	0.272	0.407	0.96	0.486	0.861	0.269
HOP-62	1.12	–	0.953	0.857	0.431	0.356	0.326	1.13	0.758	–	0.934	0.726	0.642	0.576	0.54	0.353	–	–	–	–
LC-2-ad	0.838	0.896	0.825	0.84	0.439	0.514	0.419	0.965	0.913	0.819	0.817	0.603	0.461	0.484	0.588	0.2	0.875	0.439	0.967	0.545

Cell Line	relative viability ([1]; first compound 0.02 µM)	relative viability ([1]; first compound 0.2 µM)	relative viability ([1]; first compound 0.6325 µM)	relative viability ([1]; first compound 2 µM)	relative viability ([2]; first compound 0.02 µM)	relative viability ([2]; first compound 0.2 µM)	relative viability ([2]; first compound 2 µM)	relative viability ([3]; first compound 0.02 µM)	relative viability ([3]; first compound 0.2 µM)	relative viability ([3]; first compound 0.6325 µM)	relative viability ([3]; first compound 2 µM)	relative viability ([4]; first compound 0.02 µM)	relative viability ([4]; first compound 0.2 µM)	relative viability ([4]; first compound 0.6325 µM)	relative viability ([4]; first compound 2 µM)	relative viability ([2]; first compound 0.6325 µM)	relative viability ([1]; first compound 0.06325 µM)	relative viability ([2]; first compound 0.06325 µM)	relative viability ([3]; first compound 0.06325 µM)	relative viability ([4]; first compound 0.06325 µM)
LCLC-97TM1	–	0.204	0.179	0.184	0.236	0.14	0.214	–	0.236	0.231	0.266	0.926	0.875	0.81	0.86	0.2	–	–	–	–
LCLC-103H	–	1.08	1.03	–	0.463	0.514	0.398	0.909	0.9	0.851	–	0.637	0.471	0.471	0.388	0.481	–	0.473	–	0.436
LK-2	0.614	0.739	0.222	0.689	0.173	0.159	0.176	1.33	1.23	1.18	1.19	0.258	0.282	0.276	0.15	0.139	0.427	0.181	–	0.266
LOU-NH91	0.993	0.996	0.869	0.87	0.636	0.761	0.667	0.77	0.729	0.68	0.674	0.569	0.607	0.567	0.56	0.596	0.964	0.833	0.722	0.581
LU99A	0.53	0.654	0.611	0.615	0.283	0.219	0.238	0.575	0.599	0.523	0.514	0.761	0.555	0.736	0.372	0.261	0.543	0.31	0.604	0.637
LXF-289	1.03	1.08	0.892	0.935	0.22	0.21	0.187	1.16	1.15	0.967	1.02	0.216	0.217	0.19	0.195	0.232	1.05	0.162	1.06	0.259
NCI-H23	0.535	0.588	0.546	0.598	0.441	0.322	0.269	0.751	0.866	0.731	0.58	1.06	0.694	0.78	0.972	0.285	0.641	0.37	–	0.688
NCI-H322M	1.01	–	0.891	0.981	0.483	0.491	0.471	0.771	0.857	0.772	0.866	0.245	0.248	0.237	0.253	0.432	0.895	0.507	0.871	0.259
NCI-H358	0.726	0.851	0.669	0.863	0.103	0.102	0.0939	0.799	0.841	0.759	0.868	0.151	0.153	0.163	0.135	0.0961	–	0.121	–	0.13
NCI-H441	0.644	0.573	0.47	0.546	0.58	0.667	0.412	0.633	0.87	0.706	0.605	0.713	0.693	0.745	0.546	0.612	0.485	0.644	0.903	0.619
NCI-H1299	1.14	1.04	0.983	–	–	–	–	1.16	1.14	1.12	0.983	–	–	–	–	–	1.08	–	1.1	–
NCI-H1563	1.15	1.22	1.25	1.16	–	–	–	0.966	1.03	0.934	0.895	0.458	0.457	0.421	0.448	–	1.31	–	0.931	0.523
NCI-H1648	–	–	–	–	0.542	0.426	0.443	–	–	–	–	–	–	–	–	–	–	0.349	–	–
NCI-H1650	–	–	–	–	0.449	0.337	0.303	–	–	–	–	0.371	0.326	0.285	0.261	0.37	–	0.405	–	0.262
NCI-H1734	–	–	–	–	0.243	0.278	0.264	0.749	0.769	0.699	–	0.478	0.45	0.442	0.427	0.259	–	0.268	–	0.457
NCI-H1792	0.623	0.502	0.317	0.566	–	–	–	0.921	0.661	0.507	0.638	0.847	0.769	0.596	0.666	–	0.332	–	0.515	0.429
NCI-H2126	0.724	0.728	0.742	0.758	0.921	0.872	0.739	–	–	–	–	0.705	0.537	0.457	0.517	0.352	–	–	–	–
NCI-H2170	–	–	–	–	0.872	0.752	0.712	0.954	0.846	0.789	0.797	0.636	0.477	0.48	0.411	0.585	–	0.872	0.931	0.582
NCI-H2342	–	–	–	–	0.6	0.499	0.494	–	–	–	–	0.289	0.321	0.321	0.316	0.502	–	0.511	–	0.326
SW 900	–	–	–	–	0.51	0.712	0.348	–	–	–	–	0.552	0.641	0.48	0.567	0.469	–	0.404	–	0.412
